# Laboratory results reported in patent US4293489A, “Derivatives of A-30912A nucleus” (Eli Lilly and Company, priority 1980, dated 1981).
# Like-named read-outs stand apart in the source and are kept apart here. Starred links: 1 amine or outer side, 2 acyl side, 3 side chain; linkers in the order of their positions; H or OH if unused. Positions of bridges follow the written chain, without caps; N, C: chain ends. Non-standard residues stand in square brackets, D forms with d. Residues, ends and D or L forms follow the SMILES beside them. *: point of attachment. Orn(4R-OH,5R-OH) = O=C([C@H](C[C@@H](O)[C@@H](O)N[*:3])N[*:1])[*:2]; hTyr(3S-OH,4S-OH) = N[C@H](C(=O)O)[C@H](O)[C@@H](O)c1ccc(O)cc1; Pro(3S-OH,4S-Me) = C[C@H]1CN[C@H](C(=O)O)[C@H]1O; Benzoyl(4-octyloxy) = CCCCCCCCOc1ccc(C(=O)*)cc1; X2 = CCCCCCCCCCCCCCS(=O)(=O)c1ccc(C(=O)*)cc1; X5 = CCCCCCCCCCCCS(=O)(=O)c1ccc(C(=O)*)cc1; X4 = CCCCCCCCCCS(=O)(=O)c1ccc(C(=O)*)cc1; X20 = CCCCCCCCCCCCCCOc1ccc(C(=O)*)cc1; X3 = CCCCCCCCCCCCCCSc1ccc(C(=O)*)cc1; X1 = CCCCCCCCCCCCSc1ccc(C(=O)*)cc1; Hyp = O=C(O)[C@@H]1C[C@@H](O)CN1; X6 = CCCCCCCCCCSc1ccc(C(=O)*)cc1; X8 = CCCCCCCCCOc1ccc(C(=O)*)cc1; X7 = CCCCCCCCSc1ccc(C(=O)*)cc1
# Key:
# Candida albicans A-26 [1] = assay: Agar dilution method, MIC; format: cell-based
# Description: (§1) Tables 10 and 11 give the results of the testing in vitro of the compounds of Examples 3 and 4 by agar-plate disc-diffusion methods. In Table 10 activity is measured by the size (diameter in mm) of the observed zone of inhibition of the microorganism produced by the test compound. In Table 11, activity is measured by the minimal inhibitory concentration (MIC) of the substance (μg/disc) required to inhibit growth of the test organism. Table 12 gives the results of the testing in vitro of the p-(n-octyloxy)benzoyl derivative of A30912A nucleus [Formula III, R^1 is p-(n-octyloxy)benzoyl] against five strains of Candida albicans by the agar dilution method. In Table 12 activity is measured by the minimal inhibitory concentration (MIC) of the substance (μg/ml) required to inhibit the test organism.
# Candida albicans SBH16 = assay: Agar dilution method, MIC; format: cell-based
# Description: as §1
# Candida albicans SBH28 = assay: Agar dilution method, MIC; format: cell-based
# Description: as §1
# Candida albicans SBH29 = assay: Agar dilution method, MIC; format: cell-based
# Description: as §1
# Candida albicans SBH31 = assay: Agar dilution method, MIC; format: cell-based
# Description: as §1
# [2] = tested on: Saccharomyces pastoranius X-52; assay: Agar plate disc diffusion test, zone of inhibition; format: cell-based, Saccharomyces pastorianus
# Description: as §1
# (§2) ^(a) Compounds were tested as suspension in methanol. The compounds
# (§3) were tested at a concentration of 1 mg/ml. by dipping a 7mm disc into the
# (§4) suspension and placing it on the agar surface. Incubation: 24-48 hours at
# (§5) *Measurable zone of inhibition with regrowth of organism around disc.
# Candida albicans A-26 [3] = assay: Agar plate disc diffusion test, zone of inhibition; format: cell-based; conditions: 1 mg/ml suspension in methanol, 7mm disc; 24-48 hours at 25-37° C.
# Description: as §1, §2, §3, §4, §5
# Neurospora crassa 846 = assay: Agar plate disc diffusion test, zone of inhibition; format: cell-based
# Description: as §1, §2, §3, §4, §5
# [4] = tested on: Trichophyton mentagraphytes A-23; assay: Agar plate disc diffusion test, zone of inhibition; format: cell-based, Trichophyton mentagrophytes
# Description: as §1, §2, §3, §4, §5
# in vivo = conditions: mouse, po, 416 mg/kg
# Description: In this test, mice are gavaged with a dose of 416 mg/kg of the test compound suspended in 33% PEG 400-water. At time intervals, blood samples are taken from the orbital sinus and are assayed for antibiotic activity as follows: A 7 mm. disc containing 20 μl of whole blood is placed on agar seeded with Aspergillus montevidensis A35137. After 40 hours incubation at 30° C. zones of inhibition from the blood samples are compared to a standard obtained from the test compound, and the amount of compound in the blood sample is calculated.
# [5] = Toxicity on intravenous administration to a dog; format: in vivo; conditions: 100 mg/kg per day for five days
# [6] = X52, 1 mg/ml suspension in methanol, 7mm disc, 24-48 hours at 25-37° C., read-out: Size of Zone of Inhibition
# [7] = Neurospora crassa, 846, 1 mg/ml suspension in methanol, 7mm disc, 24-48 hours at 25-37° C., read-out: Size of Zone of Inhibition
# [8] = A23, 1 mg/ml suspension in methanol, 7mm disc, 24-48 hours at 25-37° C., read-out: Size of Zone of Inhibition
structure (smiles),measurement,setting,value
"CCCCCCCCCOc1ccc(C(=O)N[C@H]2C[C@@H](O)[C@@H](O)NC(=O)[C@@H]3[C@@H](O)[C@@H](C)CN3C(=O)[C@H]([C@@H](C)O)NC(=O)[C@H]([C@H](O)[C@@H](O)c3ccc(O)cc3)NC(=O)[C@@H]3C[C@@H](O)CN3C(=O)[C@H]([C@@H](C)O)NC2=O)cc1 (X8-[Orn(4R-OH,5R-OH)]T[Hyp][hTyr(3S-OH,4S-OH)]T[Pro(3S-OH,4S-Me)]; lactam 1-C)",MIC,Candida albicans A-26 [1]; A26,0.312 µg/mL
same,MIC,Candida albicans SBH16; SBH16,0.312 µg/mL
same,MIC,Candida albicans SBH28; SBH28,0.312 µg/mL
same,MIC,Candida albicans SBH29; SBH29,0.312 µg/mL
same,MIC,Candida albicans SBH31; SBH31,0.312 µg/mL
"CCCCCCCCOc1ccc(C(=O)N[C@H]2C[C@@H](O)[C@@H](O)NC(=O)[C@@H]3[C@@H](O)[C@@H](C)CN3C(=O)[C@H]([C@@H](C)O)NC(=O)[C@H]([C@H](O)[C@@H](O)c3ccc(O)cc3)NC(=O)[C@@H]3C[C@@H](O)CN3C(=O)[C@H]([C@@H](C)O)NC2=O)cc1 [drawing 108] ({Benzoyl(4-octyloxy)}-[Orn(4R-OH,5R-OH)]T[Hyp][hTyr(3S-OH,4S-OH)]T[Pro(3S-OH,4S-Me)]; lactam 1-C)",zone of inhibition at 1000 µg/mL,[2]; [6],18 mm
same,Size of Zone of Inhibition,Candida albicans A-26 [3],28 mm
same,zone of inhibition at 1000 µg/mL,"Neurospora crassa 846; Neurospora crassa, 846, read-out: Size of Zone of Inhibition",23 mm
"CCCCCCCCCCS(=O)(=O)c1ccc(C(=O)N[C@H]2C[C@@H](O)[C@@H](O)NC(=O)[C@@H]3[C@@H](O)[C@@H](C)CN3C(=O)[C@H]([C@@H](C)O)NC(=O)[C@H]([C@H](O)[C@@H](O)c3ccc(O)cc3)NC(=O)[C@@H]3C[C@@H](O)CN3C(=O)[C@H]([C@@H](C)O)NC2=O)cc1 [drawing 112] (X4-[Orn(4R-OH,5R-OH)]T[Hyp][hTyr(3S-OH,4S-OH)]T[Pro(3S-OH,4S-Me)]; lactam 1-C)",zone of inhibition at 1000 µg/mL,[2]; [6],16 mm
same,Size of Zone of Inhibition,Candida albicans A-26 [3],55 mm
same,zone of inhibition at 1000 µg/mL,Neurospora crassa 846; [7],31 mm
same,zone of inhibition at 1000 µg/mL,[4]; [8],32 mm
"CCCCCCCCCCCCS(=O)(=O)c1ccc(C(=O)N[C@H]2C[C@@H](O)[C@@H](O)NC(=O)[C@@H]3[C@@H](O)[C@@H](C)CN3C(=O)[C@H]([C@@H](C)O)NC(=O)[C@H]([C@H](O)[C@@H](O)c3ccc(O)cc3)NC(=O)[C@@H]3C[C@@H](O)CN3C(=O)[C@H]([C@@H](C)O)NC2=O)cc1 [drawing 113] (X5-[Orn(4R-OH,5R-OH)]T[Hyp][hTyr(3S-OH,4S-OH)]T[Pro(3S-OH,4S-Me)]; lactam 1-C)",Size of Zone of Inhibition,Candida albicans A-26 [3],48 mm
same,zone of inhibition at 1000 µg/mL,Neurospora crassa 846; [7],37 mm
same,zone of inhibition at 1000 µg/mL,[4]; [8],26 mm
"CCCCCCCCCCCCCCS(=O)(=O)c1ccc(C(=O)N[C@H]2C[C@@H](O)[C@@H](O)NC(=O)[C@@H]3[C@@H](O)[C@@H](C)CN3C(=O)[C@H]([C@@H](C)O)NC(=O)[C@H]([C@H](O)[C@@H](O)c3ccc(O)cc3)NC(=O)[C@@H]3C[C@@H](O)CN3C(=O)[C@H]([C@@H](C)O)NC2=O)cc1 [drawing 114] (X2-[Orn(4R-OH,5R-OH)]T[Hyp][hTyr(3S-OH,4S-OH)]T[Pro(3S-OH,4S-Me)]; lactam 1-C)",zone of inhibition at 1000 µg/mL,"[2]; X52, read-out: Size of Zone of Inhibition",23 mm
same,Size of Zone of Inhibition,Candida albicans A-26 [3],30 mm
same,zone of inhibition at 1000 µg/mL,Neurospora crassa 846; [7],29 mm
same,zone of inhibition at 1000 µg/mL,"[4]; A23, read-out: Size of Zone of Inhibition",23 mm
"CCCCCCCCCCCCSc1ccc(C(=O)N[C@H]2C[C@@H](O)[C@@H](O)NC(=O)[C@@H]3[C@@H](O)[C@@H](C)CN3C(=O)[C@H]([C@@H](C)O)NC(=O)[C@H]([C@H](O)[C@@H](O)c3ccc(O)cc3)NC(=O)[C@@H]3C[C@@H](O)CN3C(=O)[C@H]([C@@H](C)O)NC2=O)cc1 [drawing 149] (X1-[Orn(4R-OH,5R-OH)]T[Hyp][hTyr(3S-OH,4S-OH)]T[Pro(3S-OH,4S-Me)]; lactam 1-C)",MIC,Candida albicans A-26 [1]; A26,0.625 µg/mL
same,MIC,Candida albicans SBH16; SBH16,0.625 µg/mL
same,MIC,Candida albicans SBH28; SBH28,0.625 µg/mL
same,MIC,Candida albicans SBH29; SBH29,0.625 µg/mL
same,MIC,Candida albicans SBH31; SBH31,0.625 µg/mL
"CCCCCCCCCCCCCCSc1ccc(C(=O)N[C@H]2C[C@@H](O)[C@@H](O)NC(=O)[C@@H]3[C@@H](O)[C@@H](C)CN3C(=O)[C@H]([C@@H](C)O)NC(=O)[C@H]([C@H](O)[C@@H](O)c3ccc(O)cc3)NC(=O)[C@@H]3C[C@@H](O)CN3C(=O)[C@H]([C@@H](C)O)NC2=O)cc1 [drawing 150] (X3-[Orn(4R-OH,5R-OH)]T[Hyp][hTyr(3S-OH,4S-OH)]T[Pro(3S-OH,4S-Me)]; lactam 1-C)",MIC,"Candida albicans A-26 [1]; A26, strain A-26, agar dilution, read-out: MIC",2.5 µg/mL
same,MIC,"Candida albicans SBH16; strain SBH16, agar dilution, read-out: MIC",2.5 µg/mL
same,MIC,"Candida albicans SBH28; strain SBH28, agar dilution, read-out: MIC",2.5 µg/mL
same,MIC,"Candida albicans SBH29; strain SBH29, agar dilution, read-out: MIC",2.5 µg/mL
same,MIC,"Candida albicans SBH31; strain SBH31, agar dilution, read-out: MIC",2.5 µg/mL
"CCCCCCCCCCCCCCOc1ccc(C(=O)N[C@H]2C[C@@H](O)[C@@H](O)NC(=O)[C@@H]3[C@@H](O)[C@@H](C)CN3C(=O)[C@H]([C@@H](C)O)NC(=O)[C@H]([C@H](O)[C@@H](O)c3ccc(O)cc3)NC(=O)[C@@H]3C[C@@H](O)CN3C(=O)[C@H]([C@@H](C)O)NC2=O)cc1 [drawing 184] (X20-[Orn(4R-OH,5R-OH)]T[Hyp][hTyr(3S-OH,4S-OH)]T[Pro(3S-OH,4S-Me)]; lactam 1-C)",Cmax,in vivo,5000 ng/mL
"CCCCCCCCSc1ccc(C(=O)N[C@H]2C[C@@H](O)[C@@H](O)NC(=O)[C@@H]3[C@@H](O)[C@@H](C)CN3C(=O)[C@H]([C@@H](C)O)NC(=O)[C@H]([C@H](O)[C@@H](O)c3ccc(O)cc3)NC(=O)[C@@H]3C[C@@H](O)CN3C(=O)[C@H]([C@@H](C)O)NC2=O)cc1 [drawing 185] (X7-[Orn(4R-OH,5R-OH)]T[Hyp][hTyr(3S-OH,4S-OH)]T[Pro(3S-OH,4S-Me)]; lactam 1-C)",Cmax,in vivo,< 100 ng/mL
"CCCCCCCCCCSc1ccc(C(=O)N[C@H]2C[C@@H](O)[C@@H](O)NC(=O)[C@@H]3[C@@H](O)[C@@H](C)CN3C(=O)[C@H]([C@@H](C)O)NC(=O)[C@H]([C@H](O)[C@@H](O)c3ccc(O)cc3)NC(=O)[C@@H]3C[C@@H](O)CN3C(=O)[C@H]([C@@H](C)O)NC2=O)cc1 [drawing 186] (X6-[Orn(4R-OH,5R-OH)]T[Hyp][hTyr(3S-OH,4S-OH)]T[Pro(3S-OH,4S-Me)]; lactam 1-C)",Cmax,in vivo,5000 ng/mL
"CCCCCCCCCCCCSc1ccc(C(=O)N[C@H]2C[C@@H](O)[C@@H](O)NC(=O)[C@@H]3[C@@H](O)[C@@H](C)CN3C(=O)[C@H]([C@@H](C)O)NC(=O)[C@H]([C@H](O)[C@@H](O)c3ccc(O)cc3)NC(=O)[C@@H]3C[C@@H](O)CN3C(=O)[C@H]([C@@H](C)O)NC2=O)cc1 [drawing 187] (X1-[Orn(4R-OH,5R-OH)]T[Hyp][hTyr(3S-OH,4S-OH)]T[Pro(3S-OH,4S-Me)]; lactam 1-C)",Cmax,in vivo,30000 ng/mL
"CCCCCCCCCCCCCCSc1ccc(C(=O)N[C@H]2C[C@@H](O)[C@@H](O)NC(=O)[C@@H]3[C@@H](O)[C@@H](C)CN3C(=O)[C@H]([C@@H](C)O)NC(=O)[C@H]([C@H](O)[C@@H](O)c3ccc(O)cc3)NC(=O)[C@@H]3C[C@@H](O)CN3C(=O)[C@H]([C@@H](C)O)NC2=O)cc1 [drawing 188] (X3-[Orn(4R-OH,5R-OH)]T[Hyp][hTyr(3S-OH,4S-OH)]T[Pro(3S-OH,4S-Me)]; lactam 1-C)",Cmax,in vivo,230000 ng/mL
"CCCCCCCCOc1ccc(C(=O)N[C@H]2C[C@@H](O)[C@@H](O)NC(=O)[C@@H]3[C@@H](O)[C@@H](C)CN3C(=O)[C@H]([C@@H](C)O)NC(=O)[C@H]([C@H](O)[C@@H](O)c3ccc(O)cc3)NC(=O)[C@@H]3C[C@@H](O)CN3C(=O)[C@H]([C@@H](C)O)NC2=O)cc1 [p-(n-octyloxy)benzoyl derivative of A-30912A nucleus] ({Benzoyl(4-octyloxy)}-[Orn(4R-OH,5R-OH)]T[Hyp][hTyr(3S-OH,4S-OH)]T[Pro(3S-OH,4S-Me)]; lactam 1-C)",SGPT levels,[5],increased SGPT levels were observed
same,outward signs of toxicity,[5],no outward signs of toxicity
